Measurements as given in patent US20160102099A1, “ANTI-VIRAL COMPOUNDS” (Kineta, Inc., priority 2011, published 2016).
Entries after “also recorded” stand apart in the source; their conditions may differ.

Columns and labels:
NFκB = assay: Immunofluorescent cytochemistry assay, NFκB activation; type: cell-based, human; conditions: HeLa cells, 20 hours, increasing amounts, FIG. 2B
Description: Immunofluorescent Cytochemistry Assay to Determine NFκB Activation.
The innate immune response dependent on RIG-I also activates the NFκB transcription factor and thus increases nuclear levels. Cultured human HeLa cells were treated with increasing amounts of compound or equivalent amounts of DMSO diluted in media for 20 hours. Positive control wells were infected with 100 HA/mL Sendai virus for an equivalent time period. NFκB was detected using, in this example, monoclonal mouse antibody specific to the p65 subunit of NFκB and a secondary antibody conjugated to DyLight 488.
(§1) Quantification of Immunofluorescent Assays.
(§2) 96-well plates containing cultured human cells treated with compound and stained for either IRF-3 or NFκB were scanned and quantified using the ARRAYSCAN® instrument and software (Cellomics). Activation of transcription factor is evidenced by increased nuclear intensity normalized for cytoplasmic intensity, or nuclear-cytoplasmic difference.

[1] = tested on: human primary dendritic cells; assay: Ex vivo cytokine expression in primary dendritic cells (Luminex/MAGPIX); type: cell-based; conditions: dendritic cells, 0, 1 or 10 μM, 24 hours, supernatant, FIG. 3
Description: The activity of KIN2000 in primary immune cells was assayed to determine whether KIN2000 stimulates immune responses. In this example, cultured human primary dendritic cells were treated with 0, 1, or 10 μM of KIN2000 for 24 hours. Supernatant from treated wells was isolated and tested for levels of cytokine protein. Cytokines were detected using specific antibodies conjugated to magnetic beads and a secondary antibody that reacts with Streptavidin/Phycoerythrin to produce a fluorescent signal. The bound beads were detected and quantified using the MAGPIX® instrument (LUMINEX®) in this Example, but a similar technique can also be used to measure fluorescent protein production, such as an ELISA.

ISG54 promoter = assay: Luciferase reporter assay, ISG54 promoter; type: cell-based; conditions: stably transfected human cells, 18-20 hours with compound, FIG. 1A
Description: (§3) Luciferase Assay to Identify Active Compounds. Cultured human cells that were stably transfected with luciferase reporter gene driven by RIG-I responsive promoter (IFNβ, ISG56, or ISG54 promoter) were seeded and allowed to grow overnight. The compound “KIN2000” was then added and cells were grown in the presence of KIN2000 for 18-20 hours. Steady-Glo luciferase substrate (Promega) was added and luminescence was read on a luminometer (Berthold).

ISG56 promoter = assay: Luciferase reporter assay, ISG56 promoter; type: cell-based; conditions: stably transfected human cells, 18-20 hours with compound, FIG. 1A
Description: as §3

IFNβ promoter = assay: Luciferase reporter assay, IFNβ promoter; type: cell-based; conditions: stably transfected human cells, 18-20 hours with compound, FIG. 1A
Description: as §3

IRF-3 = assay: Immunofluorescent cytochemistry assay, IRF-3 activation and translocation to the nucleus; type: cell-based, human; conditions: U2OS cells (method) / HeLa cells (figure legend), 20 hours, increasing amounts, FIG. 2A
Description: Immunofluorescent Cytochemistry Assay to Determine IRF-3 Activation and Translocation to the Nucleus.
The induction of ISG expression mediated by RIG-I is conferred by phosphorylation, dimerization, and nuclear translocation of the IRF-3 transcription factor. Cultured human U2OS cells were treated with increasing amounts of compound or equivalent amounts of DMSO diluted in media for 20 hours. Positive control wells were infected with 100 HA/mL Sendai virus for an equivalent time period. IRF-3 was detected using polyclonal rabbit serum specific to IRF-3 and a secondary antibody conjugated to DYLIGHT™ 488.
as §1, §2

β-actin promoter = assay: Actin counterscreen (β-actin-luciferase reporter); type: cell-based, human; conditions: specificity counterscreen, FIG. 1B
HeLa cells = assay: MTS assay to determine cytotoxicity; type: cell-based, human; conditions: 48 hours, 0, 1, 5, 10 and 20 μM, FIG. 1C
Description: MTS Assay to Determine Cytotoxicity. Cultured human HeLa cells were treated with increasing amounts of compound or equivalent amounts of DMSO diluted in media for 48 hours to see their effect on cell viability. The proportion of viable cells was calculated using a cell viability assay that measures conversion of a tetrazolium compound (3-(4,5-dimethyl-2-yl)-5-(3-carboxymethoxyphenyl)-2-(4-sulfophenyl)-2H-tetrazolium, inner salt; the MTS assay) to a colored formazan compound in live cells. The conversion of MTS to formazan was detected in a 96-well microtiter plate reader, and the resulting optical densities could then be plotted directly to estimate cell viability. CELLTITER 96® AQueous One Solution Cell (Promega) was the one-step assay used, according to the manufacturer's protocol, and cells were incubated for three hours in the presence of reagent before O.D. reading was done. KIN2000 was diluted to final concentrations of 0, 1, 5, 10, and 20 μM in media containing 0.5% DMSO. Negative control wells contained no compound, and positive control for cytotoxicity was examined using an EMCV infection which causes 100% cytopathic effect. Each compound concentration and control was done in triplicate wells.

Cn1c(=O)c2c(SCc3cccc(C(F)(F)F)c3)nc(-c3ccco3)nc2n(C)c1=O [KIN2000]
NFκB translocation (nuclear-cytoplasmic difference) (NFκB): dose dependent increase; also recorded: dose-dependent increase
IL-8 expression [1]: induce expression; also recorded: dose-dependent expression
MCP-1 (CCL2) expression [1]: induce expression; also recorded: dose-dependent expression
MIP-1α (CCL3) expression [1]: induce expression; also recorded: dose-dependent expression
MIP-1β (CCL4) expression [1]: induce expression; also recorded: dose-dependent expression
induction of ISG54-luciferase reporter gene (ISG54 promoter): dose-dependent induction
induction of ISG56-luciferase reporter gene (ISG56 promoter): dose-dependent induction
induction of IFNβ-luciferase reporter gene (IFNβ promoter): dose-dependent induction
IRF-3 translocation to the nucleus (nuclear-cytoplasmic difference) (IRF-3): dose dependent increase; also recorded: dose-dependent increase
induction of non-specific β-actin promoter (luciferase reporter) (β-actin promoter): did not induce; also recorded: does not induce
cytotoxicity (MTS cell viability) (HeLa cells): no evident cytotoxicity; also recorded: did not show evident cytotoxicity
